Species: Rattus norvegicus
Experiment: Open TG-GATES - Regimen: Single
Type: toxicity, organism-based, Sprague-Dawley
Parameters: regimen Single, gender Male, age 6 weeks
Settings: in vivo, po, 1000 mg/kg, route gavage, dose level High; for APTT / Bas / Eos / Fbg / Hb / Ht / Lym / MCH / MCHC / MCV / Mono / Neu / PT / Plat / RBC / Ret / WBC: tissue Blood; for KIDNEY_L / KIDNEY_R / KIDNEY_TOTAL: tissue Kidney; for LIVER: tissue Liver; for A/G / ALP / ALT / AST / BUN / CRE / Ca / Cl / DBIL / GLC / IP / K / LDH / Na / PL / RALB / TBIL / TC / TG / TP / gamma-GTP: tissue Plasma

`CC(C)(S)[C@@H](N)C(=O)O` [PENICILLAMINE] showed a TERMINAL_BW (3 h) of 206.7 g, an APTT (3 h) of 16.4 s and a Bas (3 h) of 0%. It also gave an Eos (3 h) of 1%, a Fbg (3 h) of 281.4 mg/dL and a Hb (3 h) of 13.2 g/dL. It also gave a Ht (3 h) of 40.7%, a Lym (3 h) of 77% and an MCH (3 h) of 20.5 pg. For the same compound, the MCHC (3 h) was 32.3%, the MCV (3 h) was 63.4 fL and the Mono (3 h) was 3.2%. The Neu (3 h) was 18.4%, the PT (3 h) was 15.6 s and the Plat (3 h) was 128.4 x10_4/uL. It also gave an RBC (3 h) of 642.8 x10_4/ul, a Ret (3 h) of 9.2% and a WBC (3 h) of 83.2 x10_2/uL. It also gave a KIDNEY_L (3 h) of 0.9 g, a KIDNEY_R (3 h) of 0.9 g and a KIDNEY_TOTAL (3 h) of 1.8 g. For the same compound, the LIVER (3 h) was 8.6 g, the A/G (3 h) was 0.9 and the ALP (3 h) was 756.4 IU/L. For the same compound, the ALT (3 h) was 41.8 IU/L, the AST (3 h) was 75.6 IU/L and the BUN (3 h) was 9 mg/dL. The CRE (3 h) was 0.2 mg/dL, the Ca (3 h) was 10.7 mg/dL and the Cl (3 h) was 104.6 meq/L. For the same compound, the DBIL (3 h) was 0.01 mg/dL, the GLC (3 h) was 187 mg/dL and the IP (3 h) was 8.3 mg/dL. For the same compound, the K (3 h) was 4.3 meq/L, the LDH (3 h) was 74 IU/L and the Na (3 h) was 141.4 meq/L. For the same compound, the PL (3 h) was 141 mg/dL, the RALB (3 h) was 2.5 g/dL and the TBIL (3 h) was 0.032 mg/dL. For the same compound, the TC (3 h) was 78 mg/dL, the TG (3 h) was 67.2 mg/dL and the TP (3 h) was 5.1 g/dL. For the same compound, the gamma-GTP (3 h) was 1.2 IU/L, the TERMINAL_BW (6 h) was 203.8 g and the APTT (6 h) was 16.5 s. For the same compound, the Bas (6 h) was 0%, the Eos (6 h) was 0.6% and the Fbg (6 h) was 314 mg/dL. For the same compound, the Hb (6 h) was 13.2 g/dL, the Ht (6 h) was 41% and the Lym (6 h) was 71.8%. The MCH (6 h) was 20.8 pg, the MCHC (6 h) was 32.1% and the MCV (6 h) was 64.7 fL. It also gave a Mono (6 h) of 4.2%, a Neu (6 h) of 22.2% and a PT (6 h) of 14.8 s. For the same compound, the Plat (6 h) was 126.9 x10_4/uL, the RBC (6 h) was 635.2 x10_4/ul and the Ret (6 h) was 9.5%. It also gave a WBC (6 h) of 86.9 x10_2/uL, a KIDNEY_L (6 h) of 0.9 g and a KIDNEY_R (6 h) of 0.9 g. The KIDNEY_TOTAL (6 h) was 1.8 g, the LIVER (6 h) was 8 g and the A/G (6 h) was 1. For the same compound, the ALP (6 h) was 741.6 IU/L, the ALT (6 h) was 35.8 IU/L and the AST (6 h) was 70.8 IU/L. The BUN (6 h) was 8 mg/dL, the CRE (6 h) was 0.2 mg/dL and the Ca (6 h) was 10.6 mg/dL. For the same compound, the Cl (6 h) was 105.4 meq/L, the DBIL (6 h) was 0.004 mg/dL and the GLC (6 h) was 173.6 mg/dL. It also gave an IP (6 h) of 9.3 mg/dL, a K (6 h) of 4.2 meq/L and an LDH (6 h) of 80.8 IU/L. It also gave a Na (6 h) of 141.4 meq/L, a PL (6 h) of 134.6 mg/dL and an RALB (6 h) of 2.5 g/dL. The TBIL (6 h) was 0.028 mg/dL, the TC (6 h) was 79.8 mg/dL and the TG (6 h) was 31.4 mg/dL. It also gave a TP (6 h) of 5.2 g/dL, a gamma-GTP (6 h) of 1 IU/L and a TERMINAL_BW (9 h) of 203.4 g. The APTT (9 h) was 16.5 s, the Bas (9 h) was 0% and the Eos (9 h) was 1%. The Fbg (9 h) was 294.2 mg/dL, the Hb (9 h) was 13 g/dL and the Ht (9 h) was 40.6%. For the same compound, the Lym (9 h) was 73.6%, the MCH (9 h) was 20.2 pg and the MCHC (9 h) was 32.2%. The MCV (9 h) was 62.9 fL, the Mono (9 h) was 3.2% and the Neu (9 h) was 21.6%. It also gave a PT (9 h) of 15.4 s, a Plat (9 h) of 116 x10_4/uL and an RBC (9 h) of 645 x10_4/ul. For the same compound, the Ret (9 h) was 9%, the WBC (9 h) was 82.2 x10_2/uL and the KIDNEY_L (9 h) was 1 g. It also gave a KIDNEY_R (9 h) of 0.9 g, a KIDNEY_TOTAL (9 h) of 1.9 g and an LIVER (9 h) of 7.6 g. It also gave an A/G (9 h) of 1, an ALP (9 h) of 664.8 IU/L and an ALT (9 h) of 31.4 IU/L. It also gave an AST (9 h) of 65.4 IU/L, a BUN (9 h) of 7.8 mg/dL and a CRE (9 h) of 0.2 mg/dL. The Ca (9 h) was 10.5 mg/dL, the Cl (9 h) was 107 meq/L and the DBIL (9 h) was 0.01 mg/dL. For the same compound, the GLC (9 h) was 177 mg/dL, the IP (9 h) was 10.2 mg/dL and the K (9 h) was 4.3 meq/L. The LDH (9 h) was 67.4 IU/L, the Na (9 h) was 142.6 meq/L and the PL (9 h) was 127 mg/dL. For the same compound, the RALB (9 h) was 2.5 g/dL, the TBIL (9 h) was 0.036 mg/dL and the TC (9 h) was 73.2 mg/dL. It also gave a TG (9 h) of 21.4 mg/dL, a TP (9 h) of 5.1 g/dL and a gamma-GTP (9 h) of 0.8 IU/L. For the same compound, the TERMINAL_BW (24 h) was 215.2 g, the APTT (24 h) was 16.2 s and the Bas (24 h) was 0%. For the same compound, the Eos (24 h) was 1.2%, the Fbg (24 h) was 291 mg/dL and the Hb (24 h) was 13.4 g/dL. For the same compound, the Ht (24 h) was 41.2%, the Lym (24 h) was 75.4% and the MCH (24 h) was 20.8 pg. It also gave an MCHC (24 h) of 32.4%, an MCV (24 h) of 64.2 fL and a Mono (24 h) of 3.2%. It also gave a Neu (24 h) of 19.8%, a PT (24 h) of 14.2 s and a Plat (24 h) of 116.1 x10_4/uL. The RBC (24 h) was 642.2 x10_4/ul, the Ret (24 h) was 7.1% and the WBC (24 h) was 85.6 x10_2/uL. The KIDNEY_L (24 h) was 0.9 g, the KIDNEY_R (24 h) was 0.9 g and the KIDNEY_TOTAL (24 h) was 1.9 g. For the same compound, the LIVER (24 h) was 9.8 g, the A/G (24 h) was 0.9 and the ALP (24 h) was 1271.2 IU/L. For the same compound, the ALT (24 h) was 47.8 IU/L, the AST (24 h) was 68 IU/L and the BUN (24 h) was 14.6 mg/dL. For the same compound, the CRE (24 h) was 0.2 mg/dL, the Ca (24 h) was 11 mg/dL and the Cl (24 h) was 105.2 meq/L. It also gave a DBIL (24 h) of 0.012 mg/dL, a GLC (24 h) of 176 mg/dL and an IP (24 h) of 9 mg/dL. The K (24 h) was 4.1 meq/L, the LDH (24 h) was 86.8 IU/L and the Na (24 h) was 143.8 meq/L. It also gave a PL (24 h) of 155.6 mg/dL, an RALB (24 h) of 2.6 g/dL and a TBIL (24 h) of 0.028 mg/dL. The TC (24 h) was 85 mg/dL, the TG (24 h) was 85.2 mg/dL and the TP (24 h) was 5.4 g/dL. It also gave a gamma-GTP (24 h) of 0.8 IU/L.
